Assay results published in ChEMBL document CHEMBL1144279, “Biarylcarboxybenzamide derivatives as potent vanilloid receptor (VR1) antagonistic ligands” (Bioorg Med Chem Lett, 2005).

Tests used:
[1] = target: T1, Transient receptor potential cation channel subfamily V member 1 (Rattus norvegicus, UniProt O35433); experiment: In vitro agonistic activity on VR1 receptor in [Ca2+] influx assay in rat dorsal root ganglion (NE: not effective at 30 uM); assay type: functional, tissue-based
[2] = target: T1, Transient receptor potential cation channel subfamily V member 1; experiment: In vitro antagonistic activity on VR1 receptor in [Ca2+] influx assay in rat dorsal root ganglion; assay type: functional, tissue-based

T1 sequence (O35433 whole entry): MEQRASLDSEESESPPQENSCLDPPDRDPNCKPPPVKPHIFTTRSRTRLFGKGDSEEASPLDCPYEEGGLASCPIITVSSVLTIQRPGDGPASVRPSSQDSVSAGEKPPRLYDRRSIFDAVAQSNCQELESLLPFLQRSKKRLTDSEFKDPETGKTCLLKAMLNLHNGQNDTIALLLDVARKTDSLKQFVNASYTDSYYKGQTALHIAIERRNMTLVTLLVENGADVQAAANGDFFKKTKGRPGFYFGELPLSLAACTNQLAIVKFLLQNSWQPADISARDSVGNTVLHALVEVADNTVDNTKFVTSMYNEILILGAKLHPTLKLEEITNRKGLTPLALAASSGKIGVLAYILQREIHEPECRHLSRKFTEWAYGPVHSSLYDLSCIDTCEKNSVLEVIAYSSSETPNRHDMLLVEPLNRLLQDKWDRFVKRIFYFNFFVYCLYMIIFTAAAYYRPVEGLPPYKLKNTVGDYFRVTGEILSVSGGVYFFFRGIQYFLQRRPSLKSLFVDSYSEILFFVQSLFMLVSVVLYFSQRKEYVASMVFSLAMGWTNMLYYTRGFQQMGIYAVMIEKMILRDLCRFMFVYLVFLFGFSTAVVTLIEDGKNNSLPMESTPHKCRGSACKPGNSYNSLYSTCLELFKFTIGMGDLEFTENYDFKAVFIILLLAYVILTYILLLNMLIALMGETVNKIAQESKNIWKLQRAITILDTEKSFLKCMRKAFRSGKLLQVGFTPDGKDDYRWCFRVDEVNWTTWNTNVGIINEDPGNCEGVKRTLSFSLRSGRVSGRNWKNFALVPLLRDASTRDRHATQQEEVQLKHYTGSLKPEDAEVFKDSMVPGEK

| Compound | IC50 [1] | IC50 [2] [nM] |
| --- | --- | --- |
| Cc1cccnc1-c1ccc(C(=O)Nc2ccc(C(C)(C)C)cc2)cc1 | Not Active | 31 |
| CC(C)(C)c1ccc(NC(=O)c2ccc(-c3ncccc3C(F)(F)F)cc2)cc1 | Not Active | 140 |
| CC(C)(C)c1ccc(NC(=O)c2ccc(-c3ncccn3)cc2)cc1 | Not Active | 60 |
| Cc1ccc(NC(=O)c2ccc(-c3ccccn3)cc2)cc1C | Not Active | 2000 |
| CC(C)(C)c1ccc(NC(=O)c2ccc(-c3cnccn3)cc2)cc1 | Not Active | 1000 |
| CN(C(=O)c1ccc(-c2ccccn2)cc1)c1ccc(C(C)(C)C)cc1 | Not Active | > 10000 |
| CC(C)(C)c1ccc(NC(=O)c2ccc(-c3ncccc3[N+](=O)[O-])cc2)cc1 | Not Active | 60 |
| O=C(Nc1ccc(C(F)(F)F)cc1)c1ccc(-c2ccccn2)cc1 | Not Active | 7900 |
| CC(C)(C)c1ccc(NC(=O)c2ccc(-c3ccccn3)cc2)cc1 | Not Active | 31 |
| CC(C)(C)c1ccc(NC(=O)N2CCN(c3ccccn3)CC2)cc1 | Not Active | 150 |
| O=C(Nc1ccccc1)c1ccc(-c2ccccn2)cc1 | Not Active | > 10000 |
| CC(C)(C)c1ccc(NC(=O)c2ccc(-c3ncccc3Cl)cc2)cc1 | Not Active | 55 |
| Cc1ccc(NC(=O)c2ccc(-c3ccccn3)cc2)cc1 | Not Active | 2300 |
| CC(C)c1ccc(NC(=O)c2ccc(-c3ccccn3)cc2)cc1 | Not Active | 38 |
| CC(C)(C)c1ccc(NC(=O)c2ccc(-c3ccccc3)cc2)cc1 | Not Active | 3600 |
| CC(C)(C)c1ccc(NC(=O)c2ccc(-c3ccncc3)cc2)cc1 | Not Active | 280 |
| CC(C)(C)c1ccc(NC(=O)c2ccc(-c3cccnc3)cc2)cc1 | Not Active | 1300 |
| CC(C)(C)c1ccc(NC(=O)c2ccc(-c3cncnc3)cc2)cc1 | Not Active | > 10000 |
